Experiments:
[1] = tested on: carrageenin-induced paw edema; assay: Carrageenin Edema Test in Rats; type: in vivo, rat (male Wistar); details: for Inhibition %, Anti-inflammatory activity: Table I; for ED50: Rattus norvegicus, po, P.O., 30 minutes before carrageenin, edema 3 hours after, rats, Table II, read-out: Anti-inflammatory activity, Carrageenin Edema Test ID50
Protocol: (1) Carrageenin Edema Test in Rats
Inflammation was introduced by injection of 0.05 ml. of 1% carrageenin suspension into the plantar tissue of rat hind paw subcutaneously, by the method of Winter et al. in Proc. Soc. Exp. Biol. Med. 111, 544 (1962). Male Wistar rats weighing 120 to 150 g. which had fasted overnight received the test drug in aqueous tragacanth suspension orally 30 minutes before the carrageenin injection.
Paw edema was measured volumetrically, just before and 3 hours after the carrageenin injection, and R (response) was obtained by the following equation: R=(V-Vo)/Vo, where Vo and V represented the paw volumes 0 and 3 hours after carrageenin injection, respectively.
(§1) In order to get the regression line of H (% inhibition of the response) on D (dose of test drug), H in each animal was calculated from the ratio of the response to the mean response in non-medicated group. Then, the regression line and ID50 were obtained by the method of least squares. The confidence limits of ID50 was calculated using Fieller's Equation.

[2] = tested on: adjuvant-induced arthritis; assay: Adjuvant-induced Arthritis Test in Rats (Therapeutic Effect on Established Arthritis); type: in vivo, rat (female Lewis); details: Rattus norvegicus, po, 168 h, P.O., twice a day, 7 days (day 18 to 25), Table II, read-out: Anti-inflammatory activity, Adjuvant Arthritis Test ID50
Protocol: (2) Adjuvant-induced Arthritis Test in Rats
(Therapeutic Effect on Established Arthritis)
Female Lewis rats of 7-8 weeks old were injected intradermally in the hind paw with 0.05 mg. of heat-killed Mycobacterium butyricum in 0.05 ml. of liquid paraffin. Eighteen days after adjuvant injection, the well-established arthritic animals were selected and subjected to 7 days therapy with drug (twice a day orally). As the response, the volume of injected foot was measured by water displacement method at the beginning (day 18) and the end (day 25) of the therapy period.
as §1
In adjuvant arthritis, however, the ratio (RR) of responses after/before medication period was calculated first, where the response meant the swelled foot volume of the injected foot. Then, H in each animal was calculated from the ratio of RR to RRc, where RRc represented the mean RR is non-medicated group.

inflammatory pain = assay: Thermal Pain Test in Rats (analgesic activity on inflammatory pain); type: in vivo, rat (male Wistar); details: for Inhibition %, Analgesic activity: Table I; for ED50: Rattus norvegicus, po, P.O., mean at 1 and 2 hours after drug, rats, Table II, read-out: Analgesic activity, Thermal Pain Test ID50
Protocol: II. ANALGESIC ACTIVITY ON INFLAMMATORY PAIN
Thermal Pain Test in Rats
The test was conducted according to the method reported by Y. Iizuka and K. Tanaka in Folia Pharmacol. Japan, 70, 697 (1974).
Under ether anesthesia, male Wistar rat of 5-7 weeks old received a standard heat injury at the hind paw by dipping it in hot water (57° C., 6 seconds). More than 1 hour later, the pain reaction could be evoked easily by another stimulatory heat (40° C., 5 seconds). Namely immediately after this treatment, the animal used to lift up the injured paw, presumably to avoid further pain which might be caused by touching it with the wire-netting of the cage.
Thus, the sum of duration time of the paw-lifting behavior was counted over a 30 seconds period and this was used as "pain reaction time." Drug was given orally 2 hours after the first application of heat and the mean value of "pain reaction time" at 1 and 2 hours after drug administration was used as the response.
as §1

LPS-induced fever = assay: LPS-induced Fever Test in Guinea Pigs (antipyretic activity); type: in vivo, guinea pig (female Hartley); details: Cavia porcellus, po, P.O., 1.5 hours after LPS, mean at 1 and 2 hours after drug, Table II, read-out: Antipyretic activity, LPS-induced Fever Test ID50
Protocol: III. ANTIPYRETIC ACTIVITY
LPS-induced Fever Test in Guinea Pigs
Antipyretic activity was determined by a modified method of Kobayashi and Takagi in Jap. J. Pharmacol. 18, 80 (1968). Female Hartley guinea pigs weighing about 300 g. had fasted overnight and the fever was induced by injecting 1.0 μg/ml/kg LPS (product of Difco Laboratories, U.S.A., Lipo polysaccharide from Escherichia coli).
One hour after the injection, rectal temperature was measured and only the animals with fever between 0.8° C. and 1.2° C. were used for experiment.
Drugs were administered orally 1.5 hours after LPS injection, and the mean value of rectal temperature of each animal 1 and 2 hours after drug administration was used as the response.
as §1

| Structure (SMILES) | Inhibition %, Anti-inflammatory activity ([1]; 6.3 mg/kg (P.O.)) [%] | ED50 [1] [mg/kg] | ED50 [2] [mg/kg] | Inhibition %, Analgesic activity (inflammatory pain; 6.3 mg/kg (P.O.)) [%] | ED50 (inflammatory pain) [mg/kg] | ED50 (LPS-induced fever) [mg/kg] | Inhibition %, Anti-inflammatory activity ([1]; (Control) 25 mg/kg (P.O.)) [%] | Inhibition %, Analgesic activity (inflammatory pain; (Control) 19 mg/kg (P.O.)) [%] |
| --- | --- | --- | --- | --- | --- | --- | --- | --- |
| CC(C(=O)O)c1ccc(C=C2CCCCC2=O)cc1 (stereo not shown) [2-[4-(2-Oxo-1-cyclohexylidenemethyl)phenyl]propionic acid] | 75.0 | 1.2 | 0.2 | 86.8 | 1.8 | 1.46 |  |  |
| CC(C(=O)O)c1ccc(C=C2CCCC2=O)cc1 (stereo not shown) [2-[4-(2-Oxo-1-cyclopentylidenemethyl)phenyl]propionic acid] | 76.4 | 1.4 | 1.2 | 77.4 | 1.3 | 0.83 |  |  |
| CCOC(=O)C(C)c1ccc(C=C2CCCCC2=O)cc1 (stereo not shown) [Ethyl 2-[4-(2-oxo-1-cyclohexylidenemethyl)phenyl]propionate] | 72.7 |  |  | 59.2 |  |  |  |  |
| CCOC(=O)C(C)c1ccc(C=C2CCCC2=O)cc1 (stereo not shown) [Ethyl 2-[4-(2-oxo-1-cyclopentylidenemethyl)phenyl]propionate] | 85.0 |  |  | 50.5 |  |  |  |  |
| CC(C)Cc1ccc(C(C)C(=O)O)cc1 (stereo not shown) [Ibuprofen, reference compound] |  | 10.8 | 104 |  | 17.8 | 1.26 |  |  |
| CCCCC1C(=O)N(c2ccccc2)N(c2ccccc2)C1=O [Phenylbutazone, reference compound] |  |  |  |  |  |  | 30.6 | 37 |
